{"source": "paper PMC8145641", "about": "(Cells, 2021)", "key": {"[1]": {"system": "Hs27 (human foreskin fibroblast)", "assay": "Cytotoxicity assay (MTT)", "format": "cell-based", "conditions": "24 h treatment"}, "T. gondii RH-GFP [2]": {"system": "T. gondii RH-GFP", "assay": "microbe, parasite or virus in culture", "format": "cell-based, Toxoplasma gondii", "protocol": "Cell and parasite culture: The Hs27 (human foreskin fibroblast) (ATCC® CRL-1634™) (ATCC, Manassas, VA, USA) were culturing in DMEM (Dulbecco’s modified Eagle’s medium-ATCC® 30-2002™, ATCC) supplemented with 10% fetal bovine serum (fetal bovine serum, ATCC® 30-2020™, ATCC), 100 I.U./mL penicillin and 100 μg/mL streptomycin (penicillin-streptomycin solution ATCC® 30-2300™, ATCC). Cells were trypsinized (Trypsin-EDTA Solution ATCC® 30-2101™, ATCC) twice a week and seeded at a density of 1 × 10^6 per T25 cell culture flask and incubated in a 37 °C and 5% CO2 to achieve a confluent monolayer. The RH strain of Toxoplasma gondii (RH-GFP ATCC® 50940™, ATCC, highly virulent, haplogroup first, expression of green fluorescent protein) was maintained as tachyzoites, in parasite culture medium, which contains DMEM medium with 3% HIFBS (heat-inactivated FBS; 1 h in 56 °C). Infected tissue culture cells were incubated in a 37 °C and 5% CO2.\nAfter 72 h of incubation, the medium was removed and then 1 × 10^5 per well of tachyzoites of the RH strain were added to the cell monolayers, in DMEM without phenol red with 3% HIFBS. One hour later, the compounds and drugs dilutions in the DMEM without phenol red medium were added to the Hs27 cells with T. gondii. Concentration of the compounds below cytotoxic concentration (<CC30), sulfadiazine 0–10,000 μM and trimethoprim, pyrimethamine and atovaquone 0–200 μM. After a subsequent 96 h of incubation, the plates were read with covered lids, and both excitation (475 nm) and emission (509 nm) from the bottom using multimode microplate reader SpectraMax® i3. The results were expressed as mean fluorescent intensity (MFI) and transformed to the percentage of viability compared to untreated cells. Finally, the inhibitory concentrations for 50% inhibition of T. gondii proliferation (IC50) were calculated. All experiments were performed in triplicate.\nGraphs and statistical analyses: Statistical analyses and graphs were performed using GraphPad Prism version 9.0.0 for macOS (GraphPad Software, San Diego, CA, USA). […] Additionally, a relationship between cytotoxicity and antiparasitic activity were calculated as the ratio of the 30% cytotoxic concentration (CC30) to the 50% antiparasitic concentration (IC50) and presented as the selectivity index (SI)."}, "[3]": {"system": "tachyzoites of the RH-GFP strain", "assay": "Influence of compounds during Toxoplasma growth, Assay A (invasion)", "format": "cell-based, Toxoplasma gondii", "protocol": "(§1) Influence of Compounds during Toxoplasma Growth (Assay A and B): Hs27 cells were cultured on Lab-Tek™ 4-well Chamber Slides (Nunc, Thermo Fisher Scientific, Waltham, MA, USA) (5 × 10^4 cells/500 μL per well).\nAssay A—after 48 h, the medium was removed and then 5 × 10^5/500 µL/well tachyzoites of the RH-GFP strain were added to the cell monolayers, in parasite culture medium with the selected compounds at IC50 concentration: 2b, 5b, 8b, 11b or 12b, for 3 h. Then, the cells were washed to remove extracellular parasites and parasite culture medium (without any compounds) was added for 24 h.\n(§2) In both assays as the controls, Hs27 cells were infected, but not treated. After subsequent 24 h of incubation (Assay A and B), the slides were washed with sterile PBS, fixed with formaldehyde solution (252549, Sigma-Aldrich), 3.7% in PBS for 20 min and stained with DAPI for 10 min (1 mg/mL, ThermoFisher Scientific). Microscopic analysis of 100 cells in turn, comprised of counting the infected cell ratio and tachyzoites per each parasitophorous vacuoles of infected cell, was performed using a fluorescent microscope (Axio Scope.A1, Carl Zeiss, Jena, Germany) at a magnification ×1000. For image processing ZEISS ZEN Microscope Software version 3.1 was used. Three independent experiments on triplicate chamber slides using the same conditions for both assays were performed."}, "[4]": {"system": "tachyzoites of the RH-GFP strain", "assay": "Influence of compounds during Toxoplasma growth, Assay B (intracellular proliferation)", "format": "cell-based, Toxoplasma gondii", "conditions": "3 h infection without compound, washed, 24 h with compound at IC50", "protocol": "as §1\nAssay B—after 48 h, the medium was removed and then 5 × 10^5/500 µL/well tachyzoites of the RH-GFP strain were added to the cell monolayers, in parasite culture medium for 3 h.\nas §2"}, "T. gondii RH-GFP [5]": {"system": "T. gondii RH-GFP", "assay": "Kinetics of T. gondii growth, Assay 1 (intracellular tachyzoites)", "format": "cell-based, Toxoplasma gondii", "conditions": "for effect on the kinetics of T. gondii growth: Assay 1 and Assay 2, Figure 12", "protocol": "(§3) Kinetics of T. gondii growth: The effect of 12b and drugs on kinetics of T. gondii RH-GFP growth was performed as follows: 1 × 10^4 per well of Hs27 cells were seeded on black, 96-well, tissue culture-treated plates with optical bottoms in DMEM cell culture medium.\nAssay 1—After 72 h of incubation, the medium was removed and then 1 × 10^5 per well of tachyzoites of the RH strain were added to the cell monolayers, in DMEM without phenol red with 3% HIFBS. One hour later, the compound 12b and drugs dilutions in the DMEM without phenol red medium were added to the Hs27 cells with T. gondii.\n(§4) The plates were read with covered lids, and both excitation (475 nm) and emission (509 nm) from the bottom using multimode microplate reader SpectraMax® i3. Additionally, fluorescence measurement was performed every 24 h. The plates were incubated at 37 °C with 5% of CO2. The results were expressed as mean fluorescent intensity (MFI). The initial value for 1 × 10^5 of T. gondii RH-GFP was 37,000 MFI (log 4.57). The lower limit of detection was 1000 MFI (log 3.0). Data presented as a logarithm of mean fluorescence intensity (logMFI) on concentration and time dependent curves. All experiments were performed in triplicate."}, "T. gondii RH-GFP [6]": {"system": "T. gondii RH-GFP", "assay": "Kinetics of T. gondii growth, Assay 2 (pre-incubated extracellular tachyzoites)", "format": "cell-based, Toxoplasma gondii", "conditions": "24 h after infection", "protocol": "as §3\nAssay 2—After 72 h of incubation, the medium was removed and DMEM without phenol red with 3% HIFBS, was added. In the new 96-well, tissue culture-treated plates 2 × 10^5 per well of tachyzoites of the RH strain were added and treated for 3, and 6 h with the compound 12b and drugs (diluted in the DMEM without phenol red medium) at 37 °C. Then tachyzoites were wash out three times in DPBS, resuspended in DMEM without phenol red medium with 3% HIFBS, and finally 1 × 10^5 per well of tachyzoites were added to the Hs27 cells.\nas §4, with “All experiments were performed in triplicate.” left out"}, "T. gondii": {"system": "T. gondii", "conditions": "values from the earlier paper; ref [25]; cited from earlier work"}, "[7]": {"conditions": "ratio of CC30 (Hs27) to IC50 (T. gondii); 1b–12b and positive controls"}, "[8]": {"conditions": "compared to non-treated host cells, compound at IC50 concentration, assay not named in abstract"}, "[9]": {"conditions": "compound at IC50 present 3 h during infection, washed, 24 h free medium, vs non-treated"}, "[10]": {"conditions": "Toxoplasma gondii, HS27, 96 h, read-out: IC50 (50% inhibition of T. gondii proliferation)"}}, "note": "Read-outs that look alike come from different tables or passages of the source."}
{"smiles": "Cc1nc[nH]c1-c1nnc(Nc2ccc(I)cc2)s1", "note": "[12b]", "values": [{"measurement": "CC30 (cytotoxic concentration causing 30% of cells proliferation inhibition)", "setting": "[1]", "result": 98.18, "unit": "µg/mL"}, {"measurement": "IC50", "setting": "T. gondii RH-GFP [2]; Toxoplasma gondii, HS27, 96 h; read-out: IC50 (50% inhibition of T. gondii proliferation)", "result": 4.7, "unit": "µg/mL"}, {"measurement": "SI (selectivity index, CC30/IC50)", "setting": "T. gondii RH-GFP [2]; [7]", "result": 20.89}, {"measurement": "reduction in number of tachyzoites per vacuole", "setting": "[3]; [8]", "result": 93, "unit": "%"}, {"measurement": "reduction in the percentage of infected host cells", "setting": "[3]; [8]", "result": 44, "unit": "%"}, {"measurement": "number of tachyzoites per vacuole (Assay A)", "setting": "[3]; [9]", "result": "significant reductions"}, {"measurement": "percentage of infected cells (Assay A)", "setting": "[3]; [9]", "result": "significant reductions"}, {"measurement": "number of intravacuolar tachyzoites (Assay B)", "setting": "[4]", "result": "significant reduction"}, {"measurement": "percentage of infected cells (Assay B)", "setting": "[4]", "result": "still the same"}, {"measurement": "size of parasitophorous vacuole (Assay B)", "setting": "[4]", "result": "significant reduction"}, {"measurement": "inhibition at 250 µM", "setting": "T. gondii RH-GFP [5]; Toxoplasma gondii, Assay 1, 250 µM (95.50 µg/mL), first 24 h post-infection, maintained for the next 72 h", "result": 97, "unit": "%"}, {"measurement": "reduction of the number of newly formed parasites in Hs27 host cells", "setting": "T. gondii RH-GFP [6]; 3 h pre-incubation of tachyzoites", "result": 80, "unit": "%"}, {"measurement": "reduction of the number of newly formed parasites in Hs27 host cells", "setting": "T. gondii RH-GFP [6]; 6 h pre-incubation of tachyzoites", "result": 89, "unit": "%"}]}
{"smiles": "Nc1ccc(S(=O)(=O)Nc2ncccn2)cc1", "note": "[Sulfadiazine (SUL), Sulfadiazine, reference compound]", "values": [{"measurement": "CC30 (cytotoxic concentration causing 30% of cells proliferation inhibition)", "setting": "[1]", "result": 2230.61, "unit": "µg/mL"}, {"measurement": "IC50", "setting": "T. gondii RH-GFP [2]; [10]", "result": 1250, "unit": "µg/mL"}, {"measurement": "SI (selectivity index, CC30/IC50)", "setting": "T. gondii RH-GFP [2]; [7]", "result": 1.78}, {"measurement": "effect on the kinetics of T. gondii growth", "setting": "T. gondii RH-GFP [5]", "result": "only moderately slow down the proliferation of tachyzoites"}, {"measurement": "IC50 (50% inhibition of T. gondii proliferation)", "setting": "T. gondii", "result": 2721.45, "unit": "µg/mL"}]}
{"smiles": "COc1cc(Cc2cnc(N)nc2N)cc(OC)c1OC", "note": "[Trimethoprim (TRI), Trimethoprim, reference compound]", "values": [{"measurement": "CC30 (cytotoxic concentration causing 30% of cells proliferation inhibition)", "setting": "[1]", "result": 17.78, "unit": "µg/mL"}, {"measurement": "IC50", "setting": "T. gondii RH-GFP [2]; [10]", "result": 14.8, "unit": "µg/mL"}, {"measurement": "SI (selectivity index, CC30/IC50)", "setting": "T. gondii RH-GFP [2]; [7]", "result": 1.20}, {"measurement": "effect on the kinetics of T. gondii growth", "setting": "T. gondii RH-GFP [5]", "result": "only moderately slow down the proliferation of tachyzoites"}, {"measurement": "IC50 (50% inhibition of T. gondii proliferation)", "setting": "T. gondii", "result": 12.13, "unit": "µg/mL"}]}
